# Test results from US9271960B2, “Tetrahydrocarbazoles as active agents for inhibiting VEGF production by translational control” (PTC Therapeutics, Inc., priority 2004, dated 2016).
# Structures can show the parent of a compound that is named as a salt.
# Test system: VEGF
# Experiment: Hypoxia-inducible endogenous VEGF expression ELISA in HeLa cells
# Type: cell-based
# Conditions: Homo sapiens, HeLa, compounds 1-155, hypoxic conditions (1% O2), VEGF protein by ELISA, read-out: ELISA Activity
# Outline: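 HeLa cells held 24–48 h in hypoxia (1% O2) with a concentration series of compound; VEGF secreted into media quantified by ELISA against a standard curve. Parallel Cell Titer Glo viability under identical conditions gives CC50; EC50 from percent-inhibition curves.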
row,SMILES,EC50 [nM]
1,"O=C(NC1CCCc2c1[nH]c1ccc(Br)cc21)c1ccc(Cl)s1 (stereo not shown) [Compound 154, 5-Chloro-thiophene-2-carboxylic acid (6-bromo-2,3,4,9-tetrahydro-1H-carbazol-1-yl)-amide]",< 10
2,"Brc1ccc2[nH]c3c(c2c1)CCCC3N1CC=CC1 (stereo not shown) [Compound 65, 6-Bromo-1-(2,5-dihydro-pyrrol-1-yl)-2,3,4,9-tetrahydro-1H-carbazole]",200 to 1000
3,"Brc1ccc2[nH]c3c(c2c1)CCCC3Nc1cnccn1 (stereo not shown) [Compound 31, (6-Bromo-2,3,4,9-tetrahydro-1H-carbazol-1-yl)-pyrazin-2-yl-amine]",10 to 40
4,"Brc1ccc2[nH]c3c(c2c1)CCCC3NCC1CCCCC1 (stereo not shown) [Compound 67, (6-Bromo-2,3,4,9-tetrahydro-1H-carbazol-1-yl)-cyclohexylmethyl-amine]",200 to 1000
5,"Cc1ccc2[nH]c3c(c2c1)CCCC3=O [Compound 71, 6-Methyl-2,3,4,9-tetrahydro-carbazol-1-one]",200 to 1000
6,"COc1ccc(NC2CCCc3c2[nH]c2ccc(Br)cc32)cc1 (stereo not shown) [Compound 4, (6-Bromo-2,3,4,9-tetrahydro-1H-carbazol-1-yl)-(4-methoxy-phenyl)-amine]",< 10
7,"CCCCNC1CCCc2c1[nH]c1ccc(Br)cc21 (stereo not shown) [Compound 72, (6-Bromo-2,3,4,9-tetrahydro-1H-carbazol-1-yl)-butyl-amine]",200 to 1000
8,"FC(F)(F)c1ccc2[nH]c3c(c2c1)CCCC3Nc1ccc(Cl)cc1 (stereo not shown) [Compound 138, (4-Chloro-phenyl)-(6-trifluoromethyl-2,3,4,9-tetrahydro-1H-carbazol-1-yl)-amine]",10 to 40
9,"O=C1CCCc2c1[nH]c1ccc(C(F)(F)F)cc21 [Compound 60, 6-Trifluoromethyl-2,3,4,9-tetrahydro-carbazol-1-one]",200 to 1000
10,"COc1cccc(C2CCCc3c2[nH]c2ccc(Br)cc32)c1 (stereo not shown) [Compound 16, 6-Bromo-1-(3-methoxy-phenyl)-2,3,4,9-tetrahydro-1H-carbazole]",< 10
11,"COc1ccc(NC2CCCc3c2[nH]c2ccc(C(F)(F)F)cc32)cc1 (stereo not shown) [Compound 139, (4-Methoxy-phenyl)-(6-trifluoromethyl-2,3,4,9-tetrahydro-1H-carbazol-1-yl)-amine]",10 to 40
12,"Brc1ccc2[nH]c3c(c2c1)CCCC3Nc1ccc(Oc2ccccc2)cc1 (stereo not shown) [Compound 9, (6-Bromo-2,3,4,9-tetrahydro-1H-carbazol-1-yl)-(4-phenoxy-phenyl)-amine]",< 10
13,"Cc1cc(C)cc(NC2CCCc3c2[nH]c2ccc(Br)cc32)c1 (stereo not shown) [Compound 23, (6-Bromo-2,3,4,9-tetrahydro-1H-carbazol-1-yl)-(3,5-dimethyl-phenyl)-amine]",10 to 40
14,"CC(=O)n1c2c(c3cc(Br)ccc31)CCCC2n1cccc1 (stereo not shown) [Compound 13, 1-(6-Bromo-1-pyrrol-1-yl-1,2,3,4-tetrahydro-carbazol-9-yl)ethanone]",< 10
15,"Clc1ccc(NC2CCCc3c2[nH]c2ccc(Br)cc32)cc1Cl (stereo not shown) [Compound 36, (6-Bromo-2,3,4,9-tetrahydro-1H-carbazol-1-yl)-(3,4-dichloro-phenyl)-amine]",40 to 200
16,"O=S(=O)(NC1CCCc2c1[nH]c1ccc(Br)cc21)c1ccccc1 (stereo not shown) [Compound 46, N-(6-Bromo-2,3,4,9-tetrahydro-1H-carbazol-1-yl)-benzenesulfonamide]",40 to 200

row,SMILES,EC50 [nM]
1,"Brc1ccc2[nH]c3c(c2c1)CCCCC3Nc1ccccc1 (stereo not shown) [Compound 33, (2-Bromo-5,6,7,8,9,10-hexahydro-cyclohepta[b]indol-6-yl)-phenyl-amine]",10 to 40
2,"O=C(NC1CCCc2c1[nH]c1ccc(Br)cc21)c1ccc[nH]1 (stereo not shown) [Compound 126, 1H-Pyrrole-2-carboxylic acid (6-bromo-2,3,4,9-tetrahydro-1H-carbazol-1-yl)-amide]",40 to 200
3,"COc1ccc(C(=O)NC2CCCc3c2[nH]c2ccc(Cl)cc32)cc1 (stereo not shown) [Compound 145, N-(6-Chloro-2,3,4,9-tetrahydro-1H-carbazol-1-yl)-4-methoxy-benzamide]",10 to 40
4,"O=C(NC1CCCc2c1[nH]c1ccc(Br)cc21)c1cccc(Oc2ccccc2)c1 (stereo not shown) [Compound 30, N-(6-Bromo-2,3,4,9-tetrahydro-1H-carbazol-1-yl)-3-phenoxy-benzamide]",10 to 40
5,"CN(C(=O)c1ccccc1)C1CCCc2c1[nH]c1ccc(Br)cc21 (stereo not shown) [Compound 69, N-(6-Bromo-2,3,4,9-tetrahydro-1H-carbazol-1-yl)-N-methyl-benzamide]",200 to 1000
6,"NC1CCCc2c1[nH]c1c(Br)cccc21 (stereo not shown) [Compound 99, 8-Bromo-2,3,4,9-tetrahydro-1H-carbazol-1-ylamine]",> 1000
7,"O=C(O)c1ccc2[nH]c3c(c2c1)CCCC3n1cccc1 (stereo not shown) [Compound 120, 8-Pyrrol-1-yl-6,7,8,9-tetrahydro-5H-carbazole-3-carboxylic acid]",> 1000
8,"O=C(NC1CCCc2c1[nH]c1ccc(Br)cc21)c1ccoc1 (stereo not shown) [Compound 152, Furan-3-carboxylic acid (6-bromo-2,3,4,9-tetrahydro-1H-carbazol-1-yl)-amide]",200 to 1000
9,"O=C(Nc1ccccc1)NC1CCCc2c1[nH]c1ccc(Br)cc21 (stereo not shown) [Compound 81, 1-(6-Bromo-2,3,4,9-tetrahydro-1H-carbazol 1-yl)-3-phenyl-urea]",> 1000
10,"O=C(NC1CCCc2c1[nH]c1ccc(Br)cc21)c1cccc(Cl)c1 (stereo not shown) [Compound 22, N-(6-Bromo-2,3,4,9-tetrahydro-1H-carbazol-1-yl)-3-chloro-benzamide]",< 10
11,"Brc1ccc2[nH]c3c(c2c1)CCCC3NCC1CCCO1 (stereo not shown) [Compound 77, (6-Bromo-2,3,4,9-tetrahydro-1H-carbazol-1-yl)-(tetrahydro-furan-2-ylmethyl)-amine]",> 1000
12,"CC(=O)Nc1ccc(NC2CCCc3c2[nH]c2ccc(Br)cc32)cc1 (stereo not shown) [Compound 57, N-[4-(6-Bromo-2,3,4,9-tetrahydro-1H-carbazol-1-ylamino)-phenyl]-acetamide]",200 to 1000
13,"NC1CCCc2c1[nH]c1cc(Br)ccc21 (stereo not shown) [Compound 94, 7-Bromo-2,3,4,9-tetrahydro-1H-carbazol-1-ylamine; compound with methane]",> 1000
14,"FC(F)(F)Oc1ccc(NC2CCCc3c2[nH]c2ccc(Br)cc32)cc1 (stereo not shown) [Compound 19, (6-Bromo-2,3,4,9-tetrahydro-1H-carbazol-1-yl)-(4-trifluoromethoxy-phenyl)-amine]",< 10
15,"Brc1ccc2[nH]c3c(c2c1)CCCC3Nc1ccc(N2CCOCC2)cc1 (stereo not shown) [Compound 40, (6-Bromo-2,3,4,9-tetrahydro-1H-carbazol-1-yl)-(4-morpholin-4-yl-phenyl)-amine]",40 to 200

# Same assay, conditions: Homo sapiens, HeLa, compounds 191-239, hypoxic conditions, VEGF protein by ELISA, read-out: ELISA Activity EC50
row,SMILES,EC50 [nM]
1,OC1CCc2c([nH]c3ccc(Br)cc23)C1c1ccc(F)cc1 (stereo not shown) [Compound 239],< 10
2,CN1CCN(CCCOc2ccc(C3CCCc4c3[nH]c3ccc(Br)cc43)cc2)CC1 (stereo not shown) [Compound 208],40 to 200
3,OC(COc1ccc(C2CCCc3c2[nH]c2ccc(Br)cc32)cc1)Cn1nccn1 (stereo not shown) [Compound 227],< 10
4,COc1ccc(C2CCCc3c2[nH]c2ccc(Br)cc32)cc1 (stereo not shown) [Compound 192],< 10
5,COCCN(CCCOc1ccc(C2CCCc3c2[nH]c2ccc(Br)cc32)cc1)CCOC (stereo not shown) [Compound 205],10 to 40
6,OCC(O)COc1ccc(C2CCCc3c2[nH]c2ccc(Cl)cc32)cc1 (stereo not shown) [Compound 213],10 to 40
7,Oc1ccc(C2CCCc3c2[nH]c2ccc(Br)cc32)cc1 (stereo not shown) [Compound 193],10 to 40
8,COCCN(CCOC)CC(O)COc1ccc(C2CCCc3c2[nH]c2ccc(Br)cc32)cc1 (stereo not shown) [Compound 198],< 10
9,COCCN(C)CC(O)COc1ccc(C2CCCc3c2[nH]c2ccc(Cl)cc32)cc1 (stereo not shown) [Compound 218],10 to 40
10,OC(COc1ccc(C2CCCc3c2[nH]c2ccc(Br)cc32)cc1)CN1CCOCC1 (stereo not shown) [Compound 196],< 10
11,OC(COc1ccc(C2CCCCc3c2[nH]c2ccc(Cl)cc32)cc1)CN1CCSCC1 (stereo not shown) [Compound 233],< 10
12,OC(COc1ccc(C2CCCCc3c2[nH]c2ccc(Cl)cc32)cc1)Cn1ccnn1 (stereo not shown) [Compound 232],10 to 40

# Same assay, conditions: Homo sapiens, HeLa, purchased compounds 156-188, hypoxic conditions, VEGF protein by ELISA, read-out: ELISA Activity
row,SMILES,EC50 [nM]
1,"Cc1ccc2[nH]c3c(c2c1)CCCC3NC1CCCCC1 (stereo not shown) [Compound 161, Cyclohexyl-(6-methyl-2,3,4,9-tetrahydro-1H-carbazol-1-yl)-amine]",200 to 1000
2,"COc1ccc(NC(=S)N2CCn3c4c(c5cc(C)ccc53)CCCC42)cc1 (stereo not shown) [Compound 172, 8-Methyl-1,2,3a,4,5,6-hexahydro-pyrazino[3,2,1-jk]carbazole-3-carbothioic acid (4-methoxy-phenyl)-amide]",> 1000
3,"CC(=O)Nc1ccc(CN2CCCn3c4c(c5cc(C)ccc53)CCCC42)cc1 (stereo not shown) [Compound 181, N-[4-(11-Methyl-1,2,3,3a,6,7-hexahydro-5H-[1,4]diazepino[3,2,1-jk]carbazol-4-ylmethyl)-phenyl]-acetamide]",> 1000
4,"Cc1ccc2[nH]c3c(c2c1)CCCC3NCc1ccc(Cl)cc1 (stereo not shown) [Compound 160, (4-Chloro-benzyl)-(6-methyl-2,3,4,9-tetrahydro-1H-carbazol-1-yl)-amine]",200 to 1000
5,"CC(=O)N1CCn2c3c(c4cc(C)ccc42)CCCC31 (stereo not shown) [Compound 175, 1-(8-Methyl-1,2,3a,4,5,6-hexahydro-pyrazino[3,2,1-jk]carbazol-3-yl)-ethanone]",> 1000

# Same assay, conditions: Homo sapiens, HeLa, purchased compounds 156-188, hypoxic conditions, VEGF protein by ELISA, read-out: ELISA EC50
row,SMILES,EC50 [nM]
1,"Cc1ccc2[nH]c3c(c2c1)CCCC3NC1CCCCC1 (stereo not shown) [Compound 161, Cyclohexyl-(6-methyl-2,3,4,9-tetrahydro-1H-carbazol-1-yl)-amine]",670
2,"COc1ccc(NC(=S)N2CCn3c4c(c5cc(C)ccc53)CCCC42)cc1 (stereo not shown) [Compound 172, 8-Methyl-1,2,3a,4,5,6-hexahydro-pyrazino[3,2,1-jk]carbazole-3-carbothioic acid (4-methoxy-phenyl)-amide]",> 10000
3,"CC(=O)Nc1ccc(CN2CCCn3c4c(c5cc(C)ccc53)CCCC42)cc1 (stereo not shown) [Compound 181, N-[4-(11-Methyl-1,2,3,3a,6,7-hexahydro-5H-[1,4]diazepino[3,2,1-jk]carbazol-4-ylmethyl)-phenyl]-acetamide]",> 10000
4,"Cc1ccc2[nH]c3c(c2c1)CCCC3NCc1ccc(Cl)cc1 (stereo not shown) [Compound 160, (4-Chloro-benzyl)-(6-methyl-2,3,4,9-tetrahydro-1H-carbazol-1-yl)-amine]",420
5,"CC(=O)N1CCn2c3c(c4cc(C)ccc42)CCCC31 (stereo not shown) [Compound 175, 1-(8-Methyl-1,2,3a,4,5,6-hexahydro-pyrazino[3,2,1-jk]carbazol-3-yl)-ethanone]",> 10000

# Same assay, conditions: purchased compounds 156-188, hypoxic conditions, VEGF protein by ELISA, hydrochloride, read-out: ELISA EC50
row,SMILES,EC50 [nM]
1,"OCCNC1CCCc2c1[nH]c1ccc(Br)cc21 (stereo not shown) [Compound 186, 2-(6-Bromo-2,3,4,9-tetrahydro-1H-carbazol-1-ylamino)-ethanol hydrochloride]",12200

# Same assay, conditions: purchased compounds 156-188, hypoxic conditions, VEGF protein by ELISA, read-out: ELISA Activity
row,SMILES,EC50 [nM]
1,"OCCNC1CCCc2c1[nH]c1ccc(Br)cc21 (stereo not shown) [Compound 186, 2-(6-Bromo-2,3,4,9-tetrahydro-1H-carbazol-1-ylamino)-ethanol hydrochloride]",> 1000
